Results from US7462228B2, “Water-base black ink composition and colored product” (Nippon Kayaku Kabushiki Kaisha, priority 2003, dated 2008).
≈ marks a conversion by molar mass, not a printed value.

Assays:
[1] = Solubility in water of the dye compound; type: physicochemical
[2] = Maximum absorption wavelength in water (λmax); type: physicochemical

| SMILES | solubility [1] | maximum absorption wavelength in water (λmax) [2] |
| --- | --- | --- |
| COc1ccc(N=Nc2c(S(=O)(=O)O)cc3cc(N=Nc4c(S(=O)(=O)O)cc5cc(S(=O)(=O)O)c(N=Nc6ccc7cc(S(=O)(=O)O)c(N=Nc8cc(S(=O)(=O)O)ccc8S(=O)(=O)O)c(O)c7c6)c(N)c5c4O)ccc3c2O)c(S(=O)(=O)O)c1 [No. 2-29] | ≥ 100 mg/mL | 646 nm |
| COc1ccc(N=Nc2c(S(=O)(=O)O)cc3cc(N=Nc4c(S(=O)(=O)O)cc5cc(S(=O)(=O)O)c(N=Nc6ccc7cc(S(=O)(=O)O)c(N=Nc8ccc(OC)cc8S(=O)(=O)O)c(O)c7c6)c(N)c5c4O)ccc3c2O)c(S(=O)(=O)O)c1 [No. 2-1] | ~100 mg/mL (≈ 80.1 mM) | 647 nm |
| Nc1c(N=Nc2ccc3cc(S(=O)(=O)O)c(N=Nc4ccccc4S(=O)(=O)O)c(O)c3c2)c(S(=O)(=O)O)cc2cc(S(=O)(=O)O)c(N=Nc3ccc4cc(S(=O)(=O)O)c(N=Nc5ccccc5S(=O)(=O)O)c(O)c4c3)c(O)c12 [No. 2-11] | ≥ 100 mg/mL | 660 nm |
| COc1ccc(N=Nc2c(S(=O)(=O)O)cc3cc(N=Nc4c(S(=O)(=O)O)cc5cc(S(=O)(=O)O)c(N=Nc6ccc7cc(S(=O)(=O)O)c(N=Nc8ccc([N+](=O)[O-])cc8S(=O)(=O)O)c(O)c7c6)c(N)c5c4O)ccc3c2O)c(S(=O)(=O)O)c1 [No. 2-5] | ≥ 100 mg/mL | 652 nm |
| COc1ccc(N=Nc2c(S(=O)(=O)O)cc3cc(N=Nc4c(S(=O)(=O)O)cc5cc(S(=O)(=O)O)c(N=Nc6cc7c(O)c(N=Nc8ccc(OC)cc8S(=O)(=O)O)c(S(=O)(=O)O)cc7cc6S(=O)(=O)O)c(N)c5c4O)ccc3c2O)c(S(=O)(=O)O)c1 [No. 2-2] | ≥ 100 mg/mL | 657 nm |
| COc1ccc(N=Nc2c(S(=O)(=O)O)cc3c(S(=O)(=O)O)c(N=Nc4c(S(=O)(=O)O)cc5cc(S(=O)(=O)O)c(N=Nc6ccc7c(O)c(N=Nc8ccc(OC)cc8S(=O)(=O)O)c(S(=O)(=O)O)cc7c6S(=O)(=O)O)c(O)c5c4N)ccc3c2O)c(S(=O)(=O)O)c1 [No. 2-4] | ≥ 100 mg/mL | 559 nm |
| COc1ccc(N=Nc2c(S(=O)(=O)O)cc3cc(N=Nc4c(S(=O)(=O)O)cc5cc(S(=O)(=O)O)c(N=Nc6ccc7cc(S(=O)(=O)O)c(N=Nc8ccccc8S(=O)(=O)O)c(O)c7c6)c(N)c5c4O)ccc3c2O)c(S(=O)(=O)O)c1 [No. 2-3] | ≥ 100 mg/mL | 650 nm |
| COc1ccc(N=Nc2c(S(=O)(=O)O)cc3c(S(=O)(=O)O)c(N=Nc4c(S(=O)(=O)O)cc5cc(S(=O)(=O)O)c(N=Nc6ccc7c(O)c(N=Nc8ccccc8S(=O)(=O)O)c(S(=O)(=O)O)cc7c6)c(O)c5c4N)ccc3c2O)c(S(=O)(=O)O)c1 [No. 2-28] | ~100 mg/mL (≈ 77 mM) | 645 nm |
